Read-outs that look alike come from different tables or passages of the source.

Assay [1] deals with Hepatitis C virus. Description: Huh7.5.1-HCV determination (J399EM NS5A-EGFP fluorescence). In kind it is cell-based. The text has this: (§1) The Inhibitive Activity Test of the Quinazoline Compounds of the Present Invention Against Dengue Virus Serotype II and Hepatitis C Virus of Flaviviridae:
(§2) The test results of the inhibitive activity of the quinazoline compounds of the present invention against dengue virus serotype II and Hepatitis C virus of Flaviviridae are listed in table 1.
Huh7.5.1-HCV Determination:
Huh7.5.1 cell, which is currently the only cell model which can be in vitro infected by HCV viruses, can be infected by HCV viruses in vitro, and generates infective progeny viruses. J399EM is a HCV full-length mutant strain transfected by EGFP, and can generate viruses which have the same infectivity as wild-type JFH-1. Meanwhile, NS5A-EGFP fusion protein fluorescence can be observed directly in the infected cells by inserting the EGFP coding sequence into NS5A region. In this experiment, Huh7.5.1 cells were inoculated on a 96-well plate and cultured under 5% CO2 at 37° C. for 24 h. Huh7.5.1 cells were infected by J399EM virus supernatant (moi≈0.1). Meanwhile, cell control wells free from infection were included. The infected cells were washed with PBS after 8 h infection. Samples with different concentrations were added into Huh7.5.1 cells infected by J399EM viruses. Each concentration was set double wells, and control well without sample was included. The tested samples were diluted to six gradient concentrations and added respectively, and the cells were cultured for another 72 h. After the cells were treated by the samples for 72 hours, the relative intensity of fluorescence (RFU) was recorded at an excitation wavelength of 488 nm and an emission wavelength of 516 nm on a fluorescent ELISA Reader to detect the inhibition effect of the samples against HCV. The inhibition rate against HCV virus was calculated according to equation.
(§3) The inhibitive effect of the compounds on the copy number of the viruses in the culture supernatant of the BHK infected by DV2 directly reflects the inhibitive effect of the compounds against the generation of progeny viruses. In the HCV detection, the inhibitive effect of the compounds against intracellular replication of the HCV viruses can be visually determined via fluoroscopy. Meanwhile, as the only cell model which can currently be infected in vitro, Huh7.5.1 cell model infected by HCV viruses can maximumly reproduce the infection and replication process of Hepatitis C virus in vivo.

Assay [2] has as its system dengue virus serotype II. The assay can be described thus: BHK-DV2 replication determination (qPCR of viral genome copy number in culture supernatant). In kind it is cell-based. Particulars: 96 h, BHK cells infected with DV2 (MOI=0.05), 4 days culture, viral RNA copy number in supernatant by qPCR. How it is done: as §1, §2
BHK-DV2-Replication Determination:
BHK cells were inoculated on a 96-well plate. 24 hours later, DV2 viruses were added to infect for 2 h (MOI=0.05), and then viral liquid was washed away. After fresh culture medium was replaced, compounds with different concentrations were added respectively, including infection control without addition of compounds and normal MK control free from infection. After 4 days culture, the supernatant of culture fluid was sucked and centrifuged at 1000RCF for 5 min to remove the cell precipitate. Virus RNA was extracted from the supernatant by using a kit, and then reverse transcriped to be as cDNA, which was evaluated by qPCR method to determine the copy number of the virogene group in the supernatant.
as §3
For orientation: In qPCR the cycle at which signal appears reflects the starting amount.

Setting [3] is: Hepatitis C virus, Huh-7.5.1, 72 h, read-out: Huh7.5.1-HCV (replication) IC50.

Take `NC(=O)c1ncn([C@@H]2O[C@H](CO)[C@@H](O)[C@H]2O)n1` [Ribavirin, reference compound]: the IC50 in assay [1] (Hepatitis C virus, read-out: half effective inhibitive concentration against HCV virus tested in vitro) came to 20 µM. In the case of `COc1cccc2nc(N)nc(N)c12` [Yhhu-0967, 5-methoxy-2,4-diaminoquinazoline], the IC50 was 5.73 µM in assay [1] (setting [3]) and 0.76 µM in assay [2]. In assay [2], `Nc1nc(N)c2c(Oc3ccc(Cl)cc3)cccc2n1` [Yhhu-0968, 5-(4-chlorophenoxy)-2,4-diamino quinazoline] gave an IC50 above 5 µM. Turning to `COc1ccccc1Oc1cccc2nc(N)nc(N)c12` [Yhhu-0969, 5-(2-methoxyphenoxy)-2,4-diaminoquinazoline], the IC50 in assay [2] amounted to 1.12 µM. As for `Nc1nc(N)c2c(Oc3ccccc3)cccc2n1` [Yhhu-0970, 5-phenoxy-2,4-diaminoquinazoline], the figures for the IC50 in assay [1] (setting [3]) and in assay [2] were 3.18 µM and 0.43 µM, respectively. Regarding `CC(C)(C)c1ccc(Oc2cccc3nc(N)nc(N)c23)cc1` [Yhhu-1035, 5-(4-tert-butylphenoxy)-2,4-diaminoquinazoline], the results for the IC50 in assay [1] (setting [3]) and in assay [2] were 4.75 µM and 1.97 µM, respectively. As to `CC(C)(C)Oc1cccc2nc(N)nc(N)c12` [Yhhu-1036, 5-tert-butoxy-2,4-diaminoquinazoline], the figures for the IC50 in assay [1] (setting [3]) and in assay [2] were 1.23 µM and 0.009 µM, respectively. For `Nc1nc(N)c2c(OCCN3CCCC3)cccc2n1` [Yhhu-1041, 5-(2-(1-pyrrolidinyl)ethoxy)-2,4-diaminoquinazoline], the IC50 in assay [1] (setting [3]) turned out to be 12.3 µM; in assay [2], 7.13 µM. The corresponding values for `Nc1nc(N)c2c(OCc3ccccc3)cccc2n1` [Yhhu-1046, 5-benzyloxy-2,4-diaminoquinazoline] are 2.36 µM and 0.34 µM. For the compound `Nc1nc(N)c2c(Oc3cccc(Cl)c3)cccc2n1` [Yhhu-1053, 5-(3-chlorophenoxy)-2,4-diamino quinazoline], the values for the IC50 in assay [1] (setting [3]) and in assay [2] were 0.79 µM and 0.38 µM, respectively.

For `Nc1nc(N)c2c(OC3CCCC3)cccc2n1` [Yhhu-1056, 5-cyclopentyloxy-2,4-diaminoquinazoline], the IC50 in assay [1] (setting [3]) is 0.98 µM; in assay [2], above 25 µM. On to `CCCCOc1cccc2nc(N)nc(N)c12` [Yhhu-1145, 5-n-butoxy-2,4-diaminoquinazoline], for which the IC50 in assay [1] (setting [3]) was 2.34 µM; in assay [2], 0.11 µM.

Regarding `Nc1nc(N)c2c(OC34CC5CC(CC(C5)C3)C4)cccc2n1` [Yhhu-1146, 5 (1-adamantyloxy)-2,4-diaminoquinazoline], the IC50 in assay [1] (setting [3]) was 5.13 µM; in assay [2], above 25 µM. Consider `Nc1nc(N)c2c(OC3CCCCC3)cccc2n1` [Yhhu-1147, 5-cyclohexyloxy-2,4-diaminoquinazoline], for which the IC50 was 4.69 µM in assay [1] (setting [3]) and 0.1 µM in assay [2].

As to `Nc1nc(N)c2c(OCC(F)(F)F)cccc2n1` [Yhhu-1148, 5-(2,2,2-trifluoroethoxy-2,4-diaminoquinazoline], the IC50 came out at 3.12 µM in assay [1] (setting [3]) and 0.04 µM in assay [2]. In the case of `CCOc1cccc2nc(N)nc(N)c12` [Yhhu-1149, 5-ethoxy-2,4-diaminoquinazoline], the IC50 worked out at 3.94 µM in assay [1] (setting [3]) and 0.16 µM in assay [2]. On to `Nc1ccc(Oc2cccc3nc(N)nc(N)c23)cc1` [Yhhu-1150, 5-(4-aminophenoxy)-2,4-diaminoquinazoline], for which the IC50 stood at 7.25 µM in assay [1] (setting [3]) and 0.49 µM in assay [2].

For `Nc1nc(N)c2c(OCc3cccnc3)cccc2n1` [Yhhu-1151, 5-(3-pyridinemethoxy)-2,4-diaminoquinazoline], the IC50 amounted to 7.84 µM in assay [1] (setting [3]) and 0.43 µM in assay [2]. On to `COc1ccc(Oc2cccc3nc(N)nc(N)c23)cc1` [Yhhu-1152, 5-(4-methoxyphenoxy)-2,4-diaminoquinazoline], for which the IC50 amounted to 24.7 µM in assay [1] (setting [3]) and 3.11 µM in assay [2]. `CCCCCCCCOc1cccc2nc(N)nc(N)c12` [Yhhu-1411, 5-n-octyloxy-2,4-diaminoquinazoline]: the IC50 stood at 1.57 µM in assay [1] (setting [3]) and 0.18 µM in assay [2]. `CC(C)CCOc1cccc2nc(N)nc(N)c12` [Yhhu-1412, 5-isoamyloxy-2,4-diaminoquinazoline]: the IC50 in assay [1] (setting [3]) turned out to be 1.74 µM; in assay [2], 0.1 µM.

For the compound `CC(C)(C)COc1cccc2nc(N)nc(N)c12` [Yhhu-1413, 5-neooamyloxy-2,4-diaminoquinazoline], the figures for the IC50 in assay [1] (setting [3]) and in assay [2] were 3.75 µM and 0.16 µM, respectively. As to `COc1c(C)c2c(c(O)c1C/C=C(\C)CCC(=O)O)C(=O)OC2` [mycoplienolic acid, reference compound], the IC50 in assay [1] (common control compounds, HCV in vitro, read-out: half effective inhibitive concentration against HCV virus tested in vitro) was found to be 1.25 µM.

These data come from patent publication US9133138B2, “Use of a quinazoline compound in preparing a medicament against flaviviridae virus” (priority 2010, dated 2015).
